Residues, ends and D or L forms follow the SMILES beside them.
System: A549 human epithelial cell line
Experiment: Polynucleotide array (Human Operon) of A549 cells incubated with E. coli O111:B4 LPS with or without peptide
Type: cell-based
Settings: 50 μg/ml, 4 h
Protocol: The A549 human epithelial cell line was maintained in DMEM (Gibco) supplemented with 10% fetal bovine serum (FBS, Medicorp). […] Total RNA was isolated using RNAqueous (Ambion, Austin, Tex.). […] DNA contamination was removed with DNA-free kit, Ambion).
A “homemade” program was used to remove background. The program calculates the bottom 10% intensity for each subgrid and subtracts this for each grid.
Peptide (50 μg/ml) and LPS (0.1 μg/ml) or LPS alone was incubated with the A549 cells for 4 h and the RNA was isolated. Five μg total RNA was used to make Cy3/Cy5 labeled cDNA probes and hybridized onto Human Operon arrays (PRHU04). The intensity of unstimulated cells is shown in the third column of Table 1. The “Ratio: LPS/control” column refers to the intensity of polynucleotide expression in LPS simulated cells divided by in the intensity of unstimulated cells. The “Ratio: LPS+ID 27/control” column refers to the intensity of polynucleotide expression in cells stimulated with LPS and peptide divided by unstimulated cells.
Peptide and LPS or LPS alone was incubated with the A549 cells for 4 h and the RNA was isolated. 5 μg total RNA was used to make Cy3/Cy5 labeled cDNA probes and hybridized onto Human Operon arrays (PRHU04). The intensity of unstimulated cells is shown in the third column of Table 2. The “Ratio: LPS/control” column refers to the intensity of polynucleotide expression in LPS-simulated cells divided by in the intensity of unstimulated cells. The other columns refer to the intensity of polynucleotide expression in cells stimulated with LPS and peptide divided by unstimulated cells.

[1] = AB007856 FEM-1-like death receptor binding protein

Q: What does the source list for `CSCC[C@H](NC(=O)[C@H](CO)NC(=O)[C@@H](NC(=O)[C@H](CCCCN)NC(=O)[C@H](Cc1ccccc1)NC(=O)[C@H](CS)NC(=O)[C@H](CO)NC(=O)[C@H](CCCNC(=N)N)NC(=O)[C@@H](N)CCCCN)C(C)C)C(=O)N[C@@H](CCCNC(=N)N)C(=O)NCC(=O)N[C@H](C(=O)N[C@@H](CO)C(=O)N[C@@H](CCCNC(=N)N)C(=O)N[C@@H](CCCNC(=N)N)C(=O)N[C@@H](CCCNC(=N)N)C(=O)N[C@@H](CS)C(=O)N[C@@H](CCCCN)C(=O)O)C(C)C` [SEQ ID NO: 27] (H-KRSCFKVSMRGVSRRRCK-OH; N-terminus and C-terminus assumed)?
A: Ratio: LPS + ID 27/control (AB007854 growth arrest-specific 7): 2.2; Ratio: LPS + ID 27/control [1]: 0.6; Ratio: LPS + ID/Ctrl [1]: 0.62; Ratio: LPS + ID/Ctrl (AB007896 putative L-type neutral amino acid transporter): 1.82; Ratio: LPS + ID/Ctrl (AB010894 BAI1-associated protein): 1.38; Ratio: LPS + ID 27/control (AB014569 KIAA0669 gene product): 0.2; Ratio: LPS + ID/Ctrl (AB023198 KIAA0981 protein): 0.43; Ratio: LPS + ID/Ctrl (AB037722 Unknown): 0.30; Ratio: LPS + ID 27/control (AB040057 serine/threonine protein kinase MASK): 15.8; Ratio: LPS + ID/Ctrl (AC004849 Unknown): 0.07; Ratio: LPS + ID 27/control (AF035309 proteasome 26S subunit ATPase 5): 1.3; Ratio: LPS + ID/Ctrl (AF095687 brain and nasopharyngeal carcinoma susceptibility protein): 0.48; Ratio: LPS + ID 27/control (AF112219 esterase D/formylglutathione hydrolase): 1.1; Ratio: LPS + ID 27/control (AF131838 Unknown): 1.4; Ratio: LPS + ID 27/control (AF151047 hypothetical protein): 1.0; Ratio: LPS + ID 27/control (AF189009 ubiquilin 2): 1.3; Ratio: LPS + ID 27/control (AJ001403 mucin 5 subtype B tracheobronchial): 15.9; Ratio: LPS + ID 27/control (AK000087 hypothetical protein): 1.0; Ratio: LPS + ID 27/control (AK000264 Unknown): 0.6; Ratio: LPS + ID/Ctrl (AK000353 cytosolic ovarian carcinoma ag 1): 1.02; Ratio: LPS + ID 27/control (AK000353 cytosolic ovarian carcinoma antigen 1): 1.0; Ratio: LPS + ID 27/control (AK000366 hypothetical protein): 1.0; Ratio: LPS + ID 27/control (AK000562 hypothetical protein): 0.6; Ratio: LPS + ID 27/control (AK000869 hypothetical protein): 2.3; Ratio: LPS + ID/Ctrl (AK000869 hypothetical protein): 2.34; Ratio: LPS + ID/Ctrl (AK001239 hypothetical protein): 1.27; Ratio: LPS + ID/Ctrl (AK001440 hypothetical protein): 0.43; Ratio: LPS + ID 27/control (AK001569 hypothetical protein): 1.2; Ratio: LPS + ID 27/control (AK001589 hypothetical protein): 1.3; Ratio: LPS + ID/Ctrl (AK001589 hypothetical protein): 1.26; Ratio: LPS + ID/Ctrl (AK001904 hypothetical protein): 5.93; Ratio: LPS + ID 27/control (AL031983 Unknown): 5.1; Ratio: LPS + ID/Ctrl (AL031983 Unknown): 5.06; Ratio: LPS + ID 27/control (AL050337 interferon gamma receptor 1): 1.0; Ratio: LPS + ID 27/control (AL050348 Unknown): 1.7; Ratio: LPS + ID 27/control (AL096739 Unknown): 0.5; Ratio: LPS + ID/Ctrl (AL122111 hypothetical protein): 0.21; Ratio: LPS + ID 27/control (AL137376 Unknown): 0.6; Ratio: LPS + ID/Ctrl (AL137376 Unknown): 0.64; Ratio: LPS + ID 27/control (AL137614 hypothetical protein): 1.0; Ratio: LPS + ID 27/control (D14043 CD164 antigen_sialomucin): 1.0; Ratio: LPS + ID 27/control (D14539 myeloid/lymphoid or mixed-lineage leukemia translocated to 1): 3.1; Ratio: LPS + ID 27/control (D42085 KIAA0095 gene product): 1.2; Ratio: LPS + ID 27/control (D87451 ring finger protein 10): 2.1; Ratio: LPS + ID/Ctrl (D87451 ring finger protein): 2.1; Ratio: LPS + ID 27/control (J03925 integrin_alpha M): 4.2; Ratio: LPS + ID 27/control (J04058 electron-transfer-flavoprotein alpha polypeptide): 1.2; Ratio: LPS + ID 27/control (J04513 fibroblast growth factor 2): 0.9; Ratio: LPS + ID/Ctrl (J05068 transcobalamin 1): 1.78; Ratio: LPS + ID 27/control (K02581 thymidine kinase 1 soluble): 3.5; Ratio: LPS + ID 27/control (L04510 ADP-ribosylation factor): 1.4; Ratio: LPS + ID/Ctrl (L04510 ADP-ribosylation factor): 1.4; Ratio: LPS + ID/Ctrl (L19185 thioredoxin-dependent peroxide reductase 1): 0.18; Ratio: LPS + ID 27/control (L25931 lamin B receptor): 0.7; Ratio: LPS + ID 27/control (L42243 interferon receptor 2): 5.2; Ratio: LPS + ID 27/control (M23379 RAS p21 protein activator): 2.8; Ratio: LPS + ID 27/control (M32315 tumor necrosis factor receptor superfamily member 1B): 0.4; Ratio: LPS + ID 27/control (M54915 pim-1 oncogene): 0.6; Ratio: LPS + ID/Ctrl (M54915 pim-1 oncogene): 0.63; Ratio: LPS + ID 27/control (M57230 interleukin 6 signal transducer): 1.0; Ratio: LPS + ID/Ctrl (M95678 phospholipase C beta 2): 2.38; Ratio: LPS + ID/Ctrl (NM_001148 ankyrin 2_neuronal): 0.82; Ratio: LPS + ID 27/control (NM_001663 ADP-ribosylation factor 6): 1.7; Ratio: LPS + ID 27/control (NM_001940 dentatorubral-pallidoluysian atrophy): 1.2; Ratio: LPS + ID 27/control (NM_002309 leukemia inhibitory factor): 1.9; Ratio: LPS + ID 27/control (NM_004862 LPS-induced TNF-alpha factor): 1.1; Ratio: LPS + ID 27/control (NM_006092 caspase recruitment domain 4): 0.5; Ratio: LPS + ID 27/control (NM_006325 RAN member RAS oncogene family): 1.4; Ratio: LPS + ID 27/control (NM_013241 FH1/FH2 domain-containing protein): 0.6; Ratio: LPS + ID 27/control (NM_013400 replication initiation region protein): 2.0; Ratio: LPS + ID 27/control (NM_016216 RNA lariat debranching enzyme): 10.9; Ratio: LPS + ID 27/control (NM_016237 anaphase-promoting complex subunit 5): 0.9; Ratio: LPS + ID/Ctrl (NM_016382 NK cell activation inducing ligand NAIL): 0.81; Ratio: LPS + ID 27/control (U19796 melanoma-associated antigen): 0.6; Ratio: LPS + ID 27/control (U26648 syntaxin 5A): 1.4; Ratio: LPS + ID 27/control (U34252 aldehyde dehydrogenase 9): 1.2; Ratio: LPS + ID 27/control (U43083 guanine cription factor 1): 1.6; Ratio: LPS + ID/Ctrl (U52522 partner of RAC1): 1.35; Ratio: LPS + ID 27/control (U52960 SRB7 homolog): 0.8; Ratio: LPS + ID 27/control (U60205 sterol-C4-methyl oxidase-like): 0.8; Ratio: LPS + ID 27/control (U78027 galactosidase_alpha): 1.1; Ratio: LPS + ID/Ctrl (U78166 Ric like): 0.20; Ratio: LPS + ID 27/control (U78166 Ric-like expressed in neurons): 0.2; Ratio: LPS + ID 27/control (U91316 cytosolic acyl coenzyme A thioester hydrolase): 1.4; Ratio: LPS + ID 27/control (U94831 transmembrane 9 superfamily member 1): 1.5; Ratio: LPS + ID/Ctrl (X03066 MHC class II DO beta): 4.90; Ratio: LPS + ID/Ctrl (X06614 retinoic acid receptor_alpha): 0.77; Ratio: LPS + ID/Ctrl (X07173 inter-alpha inhibitor H2): 0.44; Ratio: LPS + ID 27/control (X13334 CD14 antigen): 1.1; Ratio: LPS + ID/Ctrl (X16940 smooth muscle enteric actin γ2): 3.24; Ratio: LPS + ID 27/control (X51688 cyclin A2): 1.0; Ratio: LPS + ID 27/control (X56777 zona pellucida glycoprotein 3A): 1.4; Ratio: LPS + ID 27/control (X70394 zinc finger protein 146): 1.7; Ratio: LPS + ID 27/control (X76104 death-associated protein kinase 1): 1.8; Ratio: LPS + ID 27/control (X76785 integration site for Epstein-Barr virus): 1.9; Ratio: LPS + ID 27/control (X80692 mitogen-activated protein kinase 6): 1.3; Ratio: LPS + ID 27/control (X85750 monocyte to macrophage differentiation-associated): 1.1; Ratio: LPS + ID 27/control (X92896 Unknown): 1.5; Ratio: LPS + ID 27/control (X92972 protein phosphatase 6 catalytic subunit): 1.1; Ratio: LPS + ID 27/control (Z99756 Unknown): 14.0

Source: patent US20070134261A1, “Effectors of innate immunity” (priority 2001, published 2007)
